Results published in US8003684B2, “Crystal form and pharmaceutical compositions of (+)-R-zileuton” (Cornerstone Therapeutics, Inc., priority 2006, dated 2011).

Experiment: Moisture sorption/desorption analysis
Format: physicochemical
Excerpt: The profiles show the change in weight of a sample containing Form I as the relative humidity (herein referred to as “RH”) of the environment is changed between 5% and 95% at a 10% RH interval. […] The vapor sorption/desorption profiles indicate that Form I is non-hygroscopic. Moisture sorption/desorption data were collected on a VTI SGA-100 Vapor Sorption Analyzer, calibrated using sodium chloride and polyvinylpyrrolidone as calibration standards. Sorption and desorption data were collected over a range of 5% to 95% relative humidity (RH) at 10% RH interval under a nitrogen purge. Samples were not dried prior to analysis. Equilibrium criteria used for analysis were less than 0.0100% weight change in 5 minutes, with a maximum equilibration time of 3 hours if the weight criterion was not met. Data were not corrected for the initial moisture content of the sample.

C[C@H](c1cc2ccccc2s1)N(O)C(N)=O [Form I, (+)-R-zileuton]
weight change in adsorption profile (RH below 40%, FIG. 3): essentially no weight change | hygroscopicity from vapor sorption/desorption profiles (RH between 5% and 95%): non-hygroscopic | weight gain in adsorption profile (steady gain from RH 40% until RH reaches 95%, 10% RH interval, FIG. 3): approximately 2%
